The subject of this test is Candida albicans standard strain (ATCC 10231) and clinical isolates. Kind of test: Broth micro-dilution assay, minimal inhibitory concentration (MIC). It is filed as cell-based. The settings on record: Candida albicans, C. albicans ATCC 10231; mean value; read-out: MIC. On the technique in general: Dilution methods test growth across graded concentrations, often in twofold steps.

Here are results for one molecule from patent publication US9682114B2, “Plant extracts of Ptaeroxylon obliquum nand compounds having antimicrobial and antihelminthic activity” (UNIVERSITY OF PRETORIA, priority 2013, dated 2017).

Converted amounts (≈) assume the structure as drawn.

Usually MIC stands for the lowest concentration that inhibits growth of the organism.

`CC1(C)CC[C@]2(C)CC[C@]3(C)C(CCC4C5(C)CCC(O)C(C)(C)C5CC[C@]43C)C2C1` (stereo partly drawn) [Compound 1.2, β-amyrin]: the MIC was found to be 4 µg/mL (≈ 9.33 µM).
